Assay results: US20250177371A1, “CFTR MODULATORS FOR THE TREATMENT OF VASCULAR DISEASE” (priority 2022, published 2025)
Entries after “also recorded” stand apart in the source; their conditions may differ.

Columns and labels:
COVID-19 patients = settings: treatment of COVID-19; cited from earlier work
[1] = test system: platelets in whole blood of COVID-19 patients and healthy donors; assay: Vascular Injury Flow Assay (platelet adhesion on collagen IV); assay type: cell-based, human
Method: Vascular Injury Flow Assay: Citrated blood was stained with anti-CD42b ((GPlb) Allophycocyanin (APC, clone REA 185, Miltenyi Biotec, Bergisch Gladbach, Germany)) and treated with either vehicle (DMSO), 10 μM ivacaftor or 5 µM forskolin for 15 min at 37° C. before the microfluidic flow assay was performed as previously described2. In brief, pretreated whole blood was diluted 1:4 with modified Tyrode's Buffer (134 mM NaCl, 12 mM NaHCO3, 2.90 mM KCl, 0.34 mM Na2HPO4, 3 mM MgCl2, 2.1 mM CaCl2), 20 mM HEPES, 5 mM Glucose, 1 g/l BSA, adjusted to a pH of 7.4.) immediately before perfusion with a flow rate of 20 mL/h for 5 min through collagen IV coated microchannel flow chambers (6 Channel μ-Slide VI 0.4, Ibidi, Martinsried, Germany). After perfusion, cells were fixed with 4% PFA for 30 min and washed thoroughly with PBS. Five randomly selected regions of interest (ROI) for each experimental condition were imaged with an Invitrogen™ EVOS™ fluorescent microscope and quantification of the total CD42b+ covered area was carried out with ImageJ (Version […] by the US National Institutes of Health and the LOCI, University of Wisconsin).

[2] = test system: platelets from COVID-19 patients and healthy donors (hirudin whole blood); assay: Multiple Electrode Aggregometry (Multiplate analyzer); assay type: cell-based, human; settings: 10 µM ivacaftor 15 min, ADP, TRAP6 or PAF, significance only for individual agonist-platelet combinations
Method: Multiple Electrode Aggregometry: Whole blood impedance measurement using Multiple Electrode Aggregometry (MEA) was performed on the Multiplate® analyzer by Roche (Basel, Switzerland)). Hirudin whole blood samples were treated with either vehicle (DMSO), 10 µM ivacaftor or 5 μM forskolin for 15 min at 37° C.

[3] = test system: platelets of healthy donors or severe COVID-19 patients; assay: Analysis of Ca2+ transients (Indo-1 AM, FACS); assay type: cell-based, human; settings: 10 µM ivacaftor pretreatment; ADP, TRAP6 or PAF; healthy donors and severe COVID-19; except TRAP6 stimulated healthy platelets
Method: Analysis of Ca2+ transients: Platelet rich plasma (PRP) was stained with anti-CD42b, and loaded with Indo-1 AM (Invitrogen, Waltham, MA, USA)) for 30 min at 37° C. together in the presence of either vehicle (DMSO, 10 µM ivacaftor or 5 µM forskolin) under mild agitation. Stained PRP was diluted in Tyrode's Buffer (134 mM NaCl, 12 mM NaHCO3, 2.90 mM KCl, 0.34 mM Na2HPO4, 3 mM MgCl2, 2 mM CaCI2, 20 mM HEPES, 5 mM Glucose, pH 7.4.) complemented with heparin and […] before the fluorescence ratio of Ca2+-bound Indo-1 (405 nm) to Ca2+-unbound Indo-1 (530 nm) of CD42b+ platelets was monitored on a FACSymphony™ A5 (BD Biosciences, Franklin Lakes, NJ, USA) equipped with a ultraviolet (355 nm), violet (405 nm), blue (488 nm), yellow (561 nm), and red (637 nm) solid-state laser. After basal Ca2+ concentrations were monitored for 30 s, platelets were stimulated with either 5 μM PAF (Tocris Bioscience (Bristol, England, GB)), 50 μM ADP (Sigma-Aldrich, St. Louis, MO, USA) or 50 μM TRAP-6 (purchased from Cayman Chemicals (Ann Arbor, MI, USA)) before changes in intracellular Ca2+ concentration ([Ca2+] i) were monitored for additional 2 min. Results are expressed in arbitrary units as areaunder the curve (AUC).

[4] = test system: platelets isolated from blood of healthy donors; assay: Flow cytometry of surface expression of activation markers CD62p and CD63 on platelets; assay type: cell-based, human; settings: platelets pre-treated 24 h with 10 µM ivacaftor or 5 µM forskolin prior to 50 µM ADP, 50 µM TRAP6 or 5 µM PAF
Method: Flow Cytometry: Blood samples were collected and stained as previously described3. In brief, blood was directly stained in dilution buffer (NaCl 137 mM, KCl 2.7 mM, MgCl2 1 mM, 4-(2-hydroxyethyl)-1-piperazineethanesulfonic acid (HEPES) 20 mM, glucose 5.6 mM, bovine serum albumin 1 g/l, pH 7.4.) containing mouse anti-human anti-CD42b (GPlb) Phycoerythrin (PE, clone HIP1), anti-CD62p (P-selectin) Phycoerythrin-Cyanine 7 (PE/Cy7, clone AK4), anti-CD63 (GP53) and Brilliant Violet 421 (clone H5C6), all from BioLegend (San Diego, CA, USA), before cells were fixed with 2 mL of 0.2% PFA in PBS. In order to analyze isolated platelets, total citrate blood was centrifuged at 150 g for 15 min to separate platelet rich plasma (PRP) from blood cells. PRP was collected and centrifuged again at 1000 g for 15 min. Platelets were subsequently resuspended in 10% CPDA buffer in PBS (Sigma-Aldrich (St. Louis, MO, USA)) and incubated for 24 h in the presence of either vehicle (DMSO, Sigma-Aldrich (St. Louis, MO, USA)), 10 µM ivacaftor (Cayman Chemicals, Ann Arbor, MI, USA)) or 5 µM forskolin (Fisher Scientific (Pittsburgh, PA, USA)) before staining was applied as described above. […] All measurements were analyzed with FlowJo (version 8, Tree Star, Inc., Ashland, OR, USA).

CC(=O)Oc1ccccc1C(=O)O [aspirin]
reduction in thromboembolic events (COVID-19 patients): failed to yield a significant reduction; also recorded: failed to show a significant reduction

COc1ccc(-n2nc(C(N)=O)c3c2C(=O)N(c2ccc(N4CCCCC4=O)cc2)CC3)cc1 [apixaban]
reduction in thromboembolic events (COVID-19 patients): failed to yield a significant reduction

CC(C)(C)c1cc(C(C)(C)C)c(NC(=O)c2c[nH]c3ccccc3c2=O)cc1O [ivacaftor, N-(5-hydroxy-15 2,4-ditert-butyl-phenyl)-4-oxo-1 H-quinoline-3-carboxamide]
agonist-induced platelet adhesion (CD42b+ total area) ([1]; 10 μM ivacaftor 15 min, ADP, TRAP-6 or PAF, significance for most agonist-platelet combinations): reduces; also recorded: general trend to reduce; also recorded: attenuates | adhesion of both unstimulated and stimulated platelets ([1]; whole blood of severe COVID-19 patients): reduced | agonist-induced aggregation of platelets (AUC) [2]: reduces; also recorded: general trend to reduce; also recorded: attenuates | agonist-induced aggregation of platelets (AUC) ([2]; listed as Ivacaftor): significantly attenuates | agonist-induced [Ca2+]i increase (AUC) [3]: attenuates; also recorded: significant reduction; also recorded: significantly attenuated | agonist-induced upregulation of CD62p and CD63 (platelet activation) [4]: prevented; also recorded: attenuates; also recorded: normalized
